Where two headings read alike, the source gives them in different places.
Experiments:
Boophilus microplus = Boophilus microplus injection test (BOOPMI Inj); format: in vivo; conditions: application rate 20 μg/animal, injection into abdomen of adult engorged female ticks, after 7 days
Description: Boonhilus micronlus—Injectiontest (BOOPMI Inj)
Solvent: dimethyl sulfoxide
To produce a suitable preparation of active compound, 10 mg of active compound are dissolved in 0.5 ml solvent, and the concentrate is diluted with solvent to the desired concentration.
Five adult engorged female ticks (Boophilus microplus) are injected with 1 μl compound solution into the abdomen. Ticks are transferred into replica plates and incubated in a climate chamber.
After 7 days the egg deposition of fertile eggs is monitored. Eggs where fertility is not visible are stored in a climate chamber till hatching after about 42 days. An efficacy of 100% means that all eggs are infertile; 0% means that all eggs are fertile.

[1] = Measurement of log P values by HPLC on reversed phase columns (methods [a] pH 2.3, [b] pH 2.7, [c] pH 7.8); format: physicochemical; conditions: for chromatographic logP: reversed phase HPLC columns, read-out: logP
Summary of the method: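 Determined per EEC Directive 79/831 Annex V.A8 by reversed-phase HPLC, 10-95% acetonitrile gradient: [a] pH 2.3, 0.1% phosphoric acid; [b] LC-MS, pH 2.7, 0.1% formic acid; [c] LC-MS, pH 7.8, 0.001 molar ammonium hydrogen carbonate. Calibrated with C3-C16 alkan-2-ones by retention-time interpolation.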

Cooperia curticei = Cooperia curticei test (COOPCU), larval mortality; format: in vivo; conditions: for activity (larval mortality): application rate 4 ppm, after 5 days; for mortality at 20 ppm: Cooperia curticei, 120 h, read-out: activity (larval mortality)
Description: Cooneria curtice—Test (COOPCU) Solvent: dimethyl sulfoxide
(§1) To produce a suitable preparation of active compound, 10 mg of active compound are dissolved in 0.5 ml solvent, and the concentrate is diluted with “Ringer's solution” to the desired concentration.
Approximately 40 nematode larvae (Cooperia curticei) are transferred into a test tube containing the compound solution.
After 5 days percentage of larval mortality is recorded. 100% efficacy means all larvae are killed; 0% efficacy means no larvae are killed.

Meloidogyne incognita = Meloidogyne incognita test (MELGIN), gall formation on salad seedlings; format: in vivo; conditions: application rate 20 ppm, after 14 days
Summary of the method: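 Sand vessels treated with acetone-formulated compound diluted in water, then inoculated with M. incognita eggs and larvae and sown with salad seeds. Root galling assessed after 14 days: 100% = no galls, 0% = galling equal to untreated plants.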

Haemonchus contortus = Haemonchus contortus test (HAEMCO), larval mortality; format: in vivo; conditions: 120 h, read-out: activity (larval mortality)
Description: Haemonchus contortus—Test (HAEMCO) Solvent: dimethyl sulfoxide
as §1
Approximately 40 larvae of the red stomach worm (Haemonchus contortus) are transferred into a test tube containing compound solution.
After 5 days percentage of larval mortality are recorded. 100% efficacy means all larvae are killed, 0% efficacy means no larvae are killed.

[2] = HPLC reversed phase, method [b] (pH 2.7)
[3] = pH 2.7, HPLC reversed phase, method [b] (pH 2.7)
[4] = HPLC reversed phase, method [c] pH 7.8
[5] = HPLC on reversed phase column, method [b], pH 2.7
[6] = HPLC on reversed phase column, method [c], pH 7.8

Compound	logP [1, 2]	nematicidal activity (percentage of gall formation; 100% = no galls) (Meloidogyne incognita) [%]	also measured
Cc1nn(C)c(F)c1C(=O)N[C@@H]1C[C@H]1c1ccccc1Cl (relative stereo) [Compound 49]	–	–	activity (efficacy: infertile eggs) (Boophilus microplus): 80%; logP ([1]; HPLC on reversed phase columns, method [b], pH 2.7): 2.40^[b]
O=C(N[C@@H]1C[C@@H]1c1ccc(Cl)cc1Cl)c1ccccc1Br (relative stereo) [Compound 579]	3.32^[b]	–	activity (larval mortality) (Cooperia curticei): 80%
O=C(NC1CCC1c1ccccc1C(F)(F)F)c1ccccc1I (stereo not shown) [Compound 427]	3.44^[b]	100	–
O=C(NC1CCC1c1ccccc1C(F)(F)F)c1c(F)cccc1F (stereo not shown) [Compound 430]	3.09^[b]	100	–
O=C(NC1CCC1c1ccccc1C(F)(F)F)c1ccccc1Cl (stereo not shown) [Compound 432]	3.30^[b]	100	–
O=C(NC1CCC1c1ccccc1C(F)(F)F)c1ccccc1C(F)(F)F (stereo not shown) [Compound 434]	3.44^[b]	90	–
O=C(NC1CCC1c1c(F)cccc1F)c1ccccc1I (stereo not shown) [Compound 440]	3.13^[b]	90	–
O=C(NC1CCC1c1c(F)cccc1F)c1ccccc1Cl (stereo not shown) [Compound 443]	2.97^[b]	90	–
O=C(NC1CCC1c1ccc(Cl)cc1Cl)c1ccccc1 (stereo not shown) [Compound 451]	3.30^[b]	–	activity (larval mortality) (Cooperia curticei): 90%
O=C(N[C@@H]1CC[C@@H]1c1ccc(Cl)cc1Cl)c1ccccc1I [Compound 456]	–	100	mortality at 20 ppm (Cooperia curticei): 100%; mortality at 20 ppm (Haemonchus contortus): 100%; chromatographic logP [1, 3]: 3.75
O=C(NC1CC1c1ccc(Cl)cc1)c1nccnc1Cl (stereo not shown) [Compound 461]	2.29^[b]	100	logP [1, 4]: 2.27^[c];
O=C(NC1CC1c1ccc(Cl)cc1)c1ncccc1C(F)(F)F (stereo not shown) [Compound 462]	2.85^[b]	100	logP [1, 4]: 2.81^[c];
O=C(NC1CC1c1ccc(Cl)cc1)c1cccnc1C(F)F (stereo not shown) [Compound 465]	2.15^[b]	100	logP [1, 4]: 2.14^[c];
O=C(NC1CCC1c1ccc(Cl)cc1Cl)c1ccccc1Br (stereo not shown) [Compound 472]	3.60^[b]	90	–
O=C(NC1CCC1c1ccc(Cl)cc1Cl)c1c(F)cccc1F (stereo not shown) [Compound 473]	3.36^[b]	90	–
O=C(NC1CCC1c1ccc(Cl)cc1Cl)c1ccccc1C(F)(F)F (stereo not shown) [Compound 476]	3.72^[b]	90	–
O=C(NC1CCC1c1ccc(F)cc1C(F)(F)F)c1ncccc1Cl (stereo not shown) [Compound 479]	3.11^[b]	100	–
O=C(NC1CCC1c1ccc(Cl)cc1Cl)c1cccnc1C(F)(F)F (stereo not shown) [Compound 481]	3.20^[b]	100	–
O=C(NC1CCC1c1ccc(Cl)cc1Cl)c1c(F)cccc1F (stereo not shown) [Compound 482]	3.70^[b]	90	–
Cn1cc(C(=O)NC2CCC2c2ccc(F)cc2C(F)(F)F)c(C(F)F)n1 (stereo not shown) [Compound 485]	2.84^[b]	90	–
O=C(N[C@@H]1CC[C@@H]1c1c(F)cccc1F)c1ccccc1C(F)(F)F [Compound 513]	–	100	mortality at 20 ppm (Cooperia curticei): 80%; mortality at 20 ppm (Haemonchus contortus): 90%; chromatographic logP [1, 3]: 3.15
O=C(NC1CCC1c1cc(F)ccc1C(F)(F)F)c1cccc(Cl)c1 (stereo not shown) [Compound 517]	3.65^[b]	100	–
O=C(NC1CCC1c1cc(F)ccc1C(F)(F)F)c1ncccc1Cl (stereo not shown) [Compound 518]	3.08^[b]	100	–
O=C(NC1CCC1c1ccc(F)cc1C(F)(F)F)c1sccc1I (stereo not shown) [Compound 519]	4.09^[b]	90	–
O=C(NC1CCC1c1ccc(F)cc1C(F)(F)F)c1sccc1I (stereo not shown) [Compound 520]	3.82^[b]	100	–
O=C(N[C@@H]1CC[C@@H]1c1ccccc1C(F)(F)F)c1cccnc1Cl [Compound 621]	–	100	mortality at 20 ppm (Cooperia curticei): 100%; mortality at 20 ppm (Haemonchus contortus): 90%; chromatographic logP ([1]; pH 2.7, HPLC on reversed phase column, method [b], pH 2.7): 2.64
O=C(NC1CCC1c1ccccc1C(F)(F)F)c1nccnc1C(F)(F)F (stereo not shown) [Compound 684]	–	100	logP [1, 5]: 3.15^[b]; logP [1, 6]: 3.10^[c];
O=C(NC1CCC1c1ccccc1C(F)(F)F)c1ncccc1Br (stereo not shown) [Compound 695]	–	100	logP [1, 5]: 3.17^[b]; logP [1, 6]: 3.10^[c];

Reference: patent publication US20160075653A1, “NEMATICIDAL N-(PHENYLCYCLOALKYL)CARBOXAMIDES AND N-(PHENYLCYCLOALKYL)THIOCARBOXAMIDES” (BAYER CROPSCIENCE AKTIENGESELLSCHAFT, priority 2013, published 2016)
